Data taken from ChEMBL document CHEMBL3390848, “Affinity selection and sequence-activity relationships of HIV-1 membrane fusion inhibitors directed at the drug-resistant variants” (Medchemcomm, 2010).
pEC50: −log10 of the molar value. Residues, ends and D or L forms follow the SMILES beside them.

Experiments:
[1] = tested on: Human immunodeficiency virus 1; test: Binding affinity to HIV1 His-tagged N-terminal heptad repeat of envelope glycoprotein gp41 assessed as recovery of N36-drug complex at 10 uM after 2 hrs by LC-MS analysis
[2] = tested on: Human immunodeficiency virus 1; test: Binding affinity to HIV1 His-tagged N-terminal heptad repeat of envelope glycoprotein gp41 assessed as recovery of N36-drug complex at 6 uM after 2 hrs by LC-MS analysis
[3] = tested on: Human immunodeficiency virus 1; test: Binding affinity to HIV1 His-tagged N-terminal heptad repeat of envelope glycoprotein gp41 assessed as recovery of N36-drug complex at 1 uM after 2 hrs by LC-MS analysis
[4] = tested on: Human immunodeficiency virus 1; test: Binding affinity to HIV1 His-tagged N-terminal heptad repeat of envelope glycoprotein gp41 assessed as recovery of N36-drug complex at 0.6 uM after 2 hrs by LC-MS analysis
[5] = tested on: Human immunodeficiency virus 1; test: Antiviral activity against HIV1 NL4-3 harboring gp41 D36G mutant infected in human HeLa cells expressing CD4-LTR-beta-gal assessed as inhibition of viral replication after 48 hrs by MAGI assay; assay type: functional, organism-based
[6] = tested on: Human immunodeficiency virus 1; test: Thermal stability of HIV1 envelope glycoprotein gp41 His-tagged N-terminal heptad repeat N36-drug complex assessed as thermal unfolding transition state by measuring molar ellipticity at 4 to 90 degC by circular dichroic spectra analysis
[7] = tested on: Envelope glycoprotein gp160 (Human immunodeficiency virus 1), Q72502 [V38A]; test: Binding affinity to HIV1 His-tagged N-terminal heptad repeat of envelope glycoprotein gp41 assessed as recovery of N36 V38A mutant-drug complex after 2 hrs by LC-MS analysis; parameters: concentration or dose not given beside the values
[8] = tested on: Human immunodeficiency virus 1; test: Binding affinity to HIV1 His-tagged N-terminal heptad repeat of envelope glycoprotein gp41 assessed as recovery of N36 N43D mutant-drug complex after 2 hrs by LC-MS analysis; parameters: concentration or dose not given beside the values
[9] = tested on: Envelope glycoprotein gp160 (Human immunodeficiency virus 1), Q72502 [V38A]; test: Thermal stability of HIV1 envelope glycoprotein gp41 His-tagged N-terminal heptad repeat N36 V38A mutant-drug complex assessed as thermal unfolding transition state by measuring molar ellipticity at 4 to 90 degC by circular dichroic spectra analysis
[10] = tested on: Human immunodeficiency virus 1; test: Thermal stability of HIV1 envelope glycoprotein gp41 His-tagged N-terminal heptad repeat N36 N43D mutant-drug complex assessed as thermal unfolding transition state by measuring molar ellipticity at 4 to 90 degC by circular dichroic spectra analysis
[11] = tested on: Human immunodeficiency virus 1; test: Binding affinity to HIV1 His-tagged N-terminal heptad repeat of envelope glycoprotein gp41 assessed as recovery of N54-drug complex after 2 hrs by LC-MS analysis; parameters: concentration or dose not given beside the values
[12] = tested on: Human immunodeficiency virus 1; test: Thermal stability of HIV1 envelope glycoprotein gp41 His-tagged N-terminal heptad repeat N54-drug complex assessed as thermal unfolding transition state by measuring molar ellipticity at 4 to 90 degC by circular dichroic spectra analysis
[13] = tested on: Envelope glycoprotein gp160 (Human immunodeficiency virus 1), Q72502 [V38A]; test: Binding affinity to HIV1 His-tagged N-terminal heptad repeat of envelope glycoprotein gp41 assessed as recovery of N54 V38A mutant-drug complex after 2 hrs by LC-MS analysis; parameters: concentration or dose not given beside the values
[14] = tested on: Human immunodeficiency virus 1; test: Binding affinity to HIV1 His-tagged N-terminal heptad repeat of envelope glycoprotein gp41 assessed as recovery of N54 N43D mutant-drug complex after 2 hrs by LC-MS analysis; parameters: concentration or dose not given beside the values
[15] = tested on: Envelope glycoprotein gp160 (Human immunodeficiency virus 1), Q72502 [V38A]; test: Thermal stability of HIV1 envelope glycoprotein gp41 His-tagged N-terminal heptad repeat N54 V38A mutant-drug complex assessed as thermal unfolding transition state by measuring molar ellipticity at 4 to 90 degC by circular dichroic spectra analysis
[16] = tested on: Human immunodeficiency virus 1; test: Thermal stability of HIV1 envelope glycoprotein gp41 His-tagged N-terminal heptad repeat N54 N43D mutant-drug complex assessed as thermal unfolding transition state by measuring molar ellipticity at 4 to 90 degC by circular dichroic spectra analysis

| SMILES | Activity [1] [%] | Activity [2] [%] | Activity [3] [%] | Activity [4] [%] | pEC50 [5] | Tm [6] [°C] | Activity [7] [%] | Activity [8] [%] | Tm [9] [°C] | Tm [10] [°C] | Activity [11] [%] | Tm [12] [°C] | Activity [13] [%] | Activity [14] [%] | Tm [15] [°C] | Tm [16] [°C] |
| --- | --- | --- | --- | --- | --- | --- | --- | --- | --- | --- | --- | --- | --- | --- | --- | --- |
| CC[C@H](C)[C@H](NC(=O)[C@H](CC(C)C)NC(=O)[C@H](CCC(=O)O)NC(=O)[C@H](CCC(=O)O)NC(=O)[C@@H](NC(=O)[C@H](CCCCN)NC(=O)[C@H](CCCCN)NC(=O)[C@@H](NC(=O)[C@H](Cc1ccc(O)cc1)NC(=O)[C@H](CCC(=O)O)NC(=O)[C@H](CCC(=O)O)NC(=O)[C@@H](NC(=O)[C@H](CCCCN)NC(=O)[C@H](CCCCN)NC(=O)[C@H](CC(=O)O)NC(=O)[C@H](Cc1c[nH]c2ccccc12)NC(=O)[C@H](CCC(=O)O)NC(=O)[C@H](CCC(=O)O)NC(=O)[C@H](Cc1c[nH]c2ccccc12)NC(C)=O)[C@@H](C)CC)[C@@H](C)O)[C@@H](C)CC)C(=O)N[C@@H](CCCCN)C(=O)N[C@@H](CCCCN)C(=O)N[C@@H](C)C(=O)N[C@@H](CCC(=O)O)C(=O)N[C@@H](CCC(=O)O)C(=O)N[C@@H](CCC(N)=O)C(=O)N[C@@H](CCC(N)=O)C(=O)N[C@@H](CCCCN)C(=O)N[C@@H](CCCCN)C(=O)N[C@@H](CC(N)=O)C(=O)N[C@@H](CCC(=O)O)C(=O)N[C@@H](CCC(=O)O)C(=O)N[C@@H](CCC(=O)O)C(=O)N[C@@H](CC(C)C)C(=O)N[C@@H](CCCCN)C(=O)N[C@@H](CCCCN)C(N)=O (Ac-WEEWDKKIEEYTKKIEELIKKAEEQQKKNEEELKK-NH2) | 30.7 | 22.5 | 11.5 | 5.3 | 9.70 | 86.4 | 11.4 | 12.9 | 76.1 | 74.4 |  |  |  |  |  |  |
| CC[C@H](C)[C@H](NC(=O)[C@H](CC(C)C)NC(=O)[C@H](CCC(=O)O)NC(=O)[C@H](CCC(=O)O)NC(=O)[C@@H](NC(=O)[C@H](CCCCN)NC(=O)[C@H](CCCCN)NC(=O)[C@@H](NC(=O)[C@H](Cc1ccc(O)cc1)NC(=O)[C@H](CCC(=O)O)NC(=O)[C@H](CCC(=O)O)NC(=O)[C@@H](NC(=O)[C@H](CCCCN)NC(=O)[C@H](CCCCN)NC(=O)[C@H](CC(=O)O)NC(=O)[C@H](Cc1c[nH]c2ccccc12)NC(=O)[C@H](CCC(=O)O)NC(=O)[C@H](CCC(=O)O)NC(=O)[C@H](Cc1c[nH]c2ccccc12)NC(C)=O)[C@@H](C)CC)[C@@H](C)O)[C@@H](C)CC)C(=O)N[C@@H](CCCCN)C(=O)N[C@@H](CCCCN)C(=O)N[C@@H](CC(C)C)C(=O)N[C@@H](CCC(=O)O)C(=O)N[C@@H](CCC(=O)O)C(=O)N[C@@H](CCC(N)=O)C(=O)N[C@@H](CCC(N)=O)C(=O)N[C@@H](CCCCN)C(=O)N[C@@H](CCCCN)C(=O)N[C@@H](CC(N)=O)C(=O)N[C@@H](CCC(=O)O)C(=O)N[C@@H](CCC(=O)O)C(=O)N[C@@H](CCC(=O)O)C(=O)N[C@@H](CC(C)C)C(=O)N[C@@H](CCCCN)C(=O)N[C@@H](CCCCN)C(N)=O (Ac-WEEWDKKIEEYTKKIEELIKKLEEQQKKNEEELKK-NH2) | 4.7 | 7.6 | 11.3 | 6.9 | 9.70 | 83.2 | 10.3 | 12.9 | 75 | 80 |  |  |  |  |  |  |
| CC[C@H](C)[C@H](NC(=O)[C@H](CCCCN)NC(=O)[C@H](CCCCN)NC(=O)[C@H](CC(=O)O)NC(=O)[C@H](Cc1c[nH]c2ccccc12)NC(=O)[C@H](CCC(=O)O)NC(=O)[C@H](CCC(=O)O)NC(=O)[C@H](Cc1c[nH]c2ccccc12)NC(C)=O)C(=O)N[C@@H](CCC(=O)O)C(=O)N[C@@H](CCC(=O)O)C(=O)N[C@@H](Cc1ccc(O)cc1)C(=O)N[C@H](C(=O)N[C@@H](CCCCN)C(=O)N[C@@H](CCCCN)C(=O)N[C@H](C(=O)N[C@@H](CCC(=O)O)C(=O)N[C@@H](CCC(=O)O)C(=O)N[C@@H](CC(C)C)C(=O)N[C@H](C(=O)N[C@@H](CCCCN)C(=O)N[C@@H](CCCCN)C(=O)N[C@H](C(=O)N[C@@H](CCC(=O)O)C(=O)N[C@@H](CCC(=O)O)C(=O)N[C@@H](CCC(N)=O)C(=O)N[C@@H](CCC(N)=O)C(=O)N[C@@H](CCCCN)C(=O)N[C@@H](CCCCN)C(=O)N[C@@H](CC(N)=O)C(=O)N[C@@H](CCC(=O)O)C(=O)N[C@@H](CCC(=O)O)C(=O)N[C@@H](CCC(=O)O)C(=O)N[C@@H](CC(C)C)C(=O)N[C@@H](CCCCN)C(=O)N[C@@H](CCCCN)C(N)=O)[C@@H](C)O)[C@@H](C)CC)[C@@H](C)CC)[C@@H](C)O (Ac-WEEWDKKIEEYTKKIEELIKKTEEQQKKNEEELKK-NH2) | 9 | 12.8 | 11.7 | 5.7 | 9.10 | 79.7 | 10.8 | 9.4 | 70.4 | 67.5 |  |  |  |  |  |  |
| CC[C@H](C)[C@H](NC(=O)[C@H](CCCCN)NC(=O)[C@H](CCCCN)NC(=O)[C@H](CC(=O)O)NC(=O)[C@H](Cc1c[nH]c2ccccc12)NC(=O)[C@H](CCC(=O)O)NC(=O)[C@H](CCC(=O)O)NC(=O)[C@H](Cc1c[nH]c2ccccc12)NC(C)=O)C(=O)N[C@@H](CCC(=O)O)C(=O)N[C@@H](CCC(=O)O)C(=O)N[C@@H](Cc1ccc(O)cc1)C(=O)N[C@H](C(=O)N[C@@H](CCCCN)C(=O)N[C@@H](CCCCN)C(=O)N[C@H](C(=O)N[C@@H](CCC(=O)O)C(=O)N[C@@H](CCC(=O)O)C(=O)N[C@@H](CC(C)C)C(=O)N[C@H](C(=O)N[C@@H](CCCCN)C(=O)N[C@@H](CCCCN)C(=O)N1CCC[C@H]1C(=O)N[C@@H](CCC(=O)O)C(=O)N[C@@H](CCC(=O)O)C(=O)N[C@@H](CCC(N)=O)C(=O)N[C@@H](CCC(N)=O)C(=O)N[C@@H](CCCCN)C(=O)N[C@@H](CCCCN)C(=O)N[C@@H](CC(N)=O)C(=O)N[C@@H](CCC(=O)O)C(=O)N[C@@H](CCC(=O)O)C(=O)N[C@@H](CCC(=O)O)C(=O)N[C@@H](CC(C)C)C(=O)N[C@@H](CCCCN)C(=O)N[C@@H](CCCCN)C(N)=O)[C@@H](C)CC)[C@@H](C)CC)[C@@H](C)O (Ac-WEEWDKKIEEYTKKIEELIKKPEEQQKKNEEELKK-NH2) | 0.4 | 0.2 | 0.1 | 4.5 | 7.46 | 56.1 | 0.4 | 0.3 | 56.3 | 55.6 |  |  |  |  |  |  |
| CC[C@H](C)[C@H](NC(=O)[C@H](CC(C)C)NC(=O)[C@H](CCC(=O)O)NC(=O)[C@H](CCC(=O)O)NC(=O)[C@@H](NC(=O)[C@H](CC(C)C)NC(=O)[C@H](CO)NC(=O)[C@@H](NC(=O)[C@H](Cc1ccc(O)cc1)NC(C)=O)[C@@H](C)O)[C@@H](C)CC)C(=O)N[C@@H](CCCCN)C(=O)N[C@@H](CCCCN)C(=O)N[C@@H](C)C(=O)N[C@@H](CCC(=O)O)C(=O)N[C@@H](CCC(=O)O)C(=O)N[C@@H](CCC(N)=O)C(=O)N[C@@H](CCC(N)=O)C(=O)N[C@@H](CCCCN)C(=O)N[C@@H](CCCCN)C(=O)N[C@@H](CC(N)=O)C(=O)N[C@@H](CCC(=O)O)C(=O)N[C@@H](CCC(=O)O)C(=O)N[C@@H](CCC(=O)O)C(=O)N[C@@H](CC(C)C)C(=O)N[C@@H](CCCCN)C(=O)N[C@@H](CCCCN)C(=O)N[C@@H](CC(C)C)C(=O)N[C@@H](CCC(=O)O)C(=O)N[C@@H](CCC(=O)O)C(=O)N[C@@H](Cc1c[nH]c2ccccc12)C(=O)N[C@@H](C)C(=O)N[C@@H](CCCCN)C(=O)N[C@@H](CCCCN)C(=O)N[C@@H](Cc1c[nH]c2ccccc12)C(=O)N[C@@H](CC(N)=O)C(=O)N[C@@H](Cc1c[nH]c2ccccc12)C(=O)N[C@@H](Cc1ccccc1)C(N)=O (Ac-YTSLIEELIKKAEEQQKKNEEELKKLEEWAKKWNWF-NH2) |  |  |  |  | 9.52 |  |  |  |  |  | 10 | 80.1 | 10 | 10.2 | 64.6 | 71.9 |
